Source: patent publication US8163779B2, “Glucokinase activators” (Takeda San Diego, Inc., priority 2006, dated 2012)
Where a name gives a salt, the structure may show the parent alone.

Target: T1, glucokinase (GK) (Homo sapiens, UniProt P35557)
T1 construct: I.D. No. 1 corresponds to residues 12-465 of glucokinase; made in house; host or cells: E. coli DH10b-T1r
T1 sequence (P35557 with tags, fused parts or gaps isoform P35557-2): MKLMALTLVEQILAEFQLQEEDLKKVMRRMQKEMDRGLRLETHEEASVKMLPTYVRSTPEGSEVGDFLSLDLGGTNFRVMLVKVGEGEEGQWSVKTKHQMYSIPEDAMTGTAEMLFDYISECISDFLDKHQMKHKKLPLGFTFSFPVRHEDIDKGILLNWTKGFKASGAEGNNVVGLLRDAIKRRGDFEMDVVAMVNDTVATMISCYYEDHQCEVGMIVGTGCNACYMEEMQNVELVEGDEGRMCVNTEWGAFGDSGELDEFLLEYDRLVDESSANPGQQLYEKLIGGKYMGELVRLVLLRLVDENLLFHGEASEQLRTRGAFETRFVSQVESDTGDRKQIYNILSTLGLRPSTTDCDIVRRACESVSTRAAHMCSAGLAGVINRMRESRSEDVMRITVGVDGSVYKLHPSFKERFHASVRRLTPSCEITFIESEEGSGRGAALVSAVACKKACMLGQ
Test: enzymatic glucokinase activity assay (ATP consumption, KinaseGlo luminescence)
Assay type: biochemical
Settings: recombinant GK residues 12-465; 5 μM ATP, 5 mM Glucose; Kact = concentration that displays 50% of the maximal increase in GK activity; read-out: pKact
From the text: The activity of compounds as glucokinase activators may be assayed in vitro, in vivo or in a cell line. Provided below is an enzymatic glucokinase activity assay.
Purified glucokinase may be obtained as follows. […] SEQ.
The expression of recombinant glucokinase protein may be carried out by transformation and growth of DH10b-T1r E. coli cells incorporating the (pFLAG-CTC) plasmid in LB media. Protein expression can be induced in this system by the addition of IPTG to the culture medium.
Recombinant protein may be isolated from cellular extracts by passage over Sepharose Q Fast Flow resin (Pharmacia). This partially purified GK extract may then be further purified by a second passage over Poros HQ 10 (Applied Biosystems). The purity of GK may be determined on denaturing SDS-PAGE gel. Purified GK may then be concentrated to a final concentration of 20.0 mg/ml. After flash freezing in liquid nitrogen, the proteins can be stored at −78° C. in a buffer containing 25 mM TRIS-HCl pH 7.6, 50 mM NaCl, and 0.5 mM TCEP.
The activation properties of compounds for GK may be determined using a black 384-well-plate format under the following reaction conditions: 25 mM Hepes pH 7.2, 25 mM NaCl, 10 mM MgCl2, 0.01% Brij35, 1 mM DTT, 5 μM ATP, 5 mM Glucose 2% DMSO. The amount of ATP consumed may be determined quantitatively by addition of equal volume of luciferase reagent (luciferase+beetle luciferin—KinaseGlo Luminescent Kinase Assay kit from Promega). The luminescence intensity may be measured by using the Analyst HT from LJL Biosystems.
The reaction mixture may then be incubated at room temperature for 60 min, and quenched and developed by addition of 10 μL of luciferase reagent. Luminescence intensities of the resulting reaction mixtures may be measured after a 10 min incubation at room temperature. The luminescence intensity may be measured by using the Analyst HT from LJL Biosystems.
pKact values may be calculated by non-linear curve fitting of the compound concentrations and luminescence intensities to a standard inhibition/activation equation.

Row | EC50 | Structure (SMILES)
1 | > 15.8 µM | Cc1cc(N2CCOCC2)cc(=O)n1[C@H](CC1CCCCC1)C(=O)Nc1nccs1 (stereo in doubt) [Example 79, 3-cyclohexyl-2-(6-methyl-4-morpholino-2-oxopyridin-1(2H)-yl)-N-(thiazol-2-yl)propanamide]
2 | > 15.8 µM | Cc1cc(C#CCO)cc(=O)n1[C@H](CC1CCOCC1)C(=O)Nc1ncc(Cl)s1 (stereo in doubt) [Example 137, N-(5-chlorothiazol-2-yl)-2-(4-(3-hydroxyprop-1-ynyl)-6-methyl-2-oxopyridin-1(2H)-yl)-3-(tetrahydro-2H-pyran-4-yl)propanamide]
3 | > 15.8 µM | Cc1cc(O)cc(=O)n1C(CC1CCCCC1)C(=O)Nc1nccs1 (stereo not drawn) [Example 1, 3-cyclohexyl-2-(4-hydroxy-6-methyl-2-oxopyridin-1(2H)-yl)-N-(thiazol-2-yl)propanamide trifluoroacetic acid salt]
4 | > 15.8 µM | COc1cc(C)n(C(CC2CCCCC2)C(=O)Nc2nccs2)c(=O)c1 (stereo not drawn) [Example 2, 3-cyclohexyl-2-(4-methoxy-6-methyl-2-oxopyridin-1(2H)-yl)-N-(thiazol-2-yl)propanamide trifluoroacetic acid salt]
5 | 1.58 to 15.8 µM | Cc1cc(S(C)(=O)=O)cc(=O)n1C(CC1CCCCC1)C(=O)Nc1nccs1 (stereo not drawn) [Example 3, 3-cyclohexyl-2-(6-methyl-4-(methylsulfonyl)-2-oxopyridin-1(2H)-yl)-N-(thiazol-2-yl)propanamide trifluoroacetic acid salt]
6 | 1.58 to 15.8 µM | CCS(=O)(=O)c1cc(C)n(C(CC2CCCCC2)C(=O)Nc2nccs2)c(=O)c1 (stereo not drawn) [Example 4, 3-cyclohexyl-2-(4-(ethylsulfonyl)-6-methyl-2-oxopyridin-1(2H)-yl)-N-(thiazol-2-yl)propanamide trifluoroacetic acid salt]
7 | < 1.58 µM | Cc1cc(S(=O)(=O)C2CCCC2)cc(=O)n1C(CC1CCCCC1)C(=O)Nc1nccs1 (stereo not drawn) [Example 5, 3-cyclohexyl-2-(4-(cyclopentylsulfonyl)-6-methyl-2-oxopyridin-1(2H)-yl)-N-(thiazol-2-yl)propanamide trifluoroacetic acid salt]
8 | < 1.58 µM | Cc1cc(S(=O)(=O)C2CCCC2)cc(=O)n1C(CC1CCCCC1)C(=O)Nc1ccc(C(N)=O)cn1 (stereo not drawn) [Example 6, 6-(3-cyclohexyl-2-(4-(cyclopentylsulfonyl)-6-methyl-2-oxopyridin-1(2H)-yl)propanamido)nicotinamide trifluoroacetic acid salt]
9 | > 15.8 µM | Cc1cc(S(C)(=O)=O)cc(=O)n1C(CC1CCOCC1)C(=O)Nc1nccs1 (stereo not drawn) [Example 7, 2-(6-methyl-4-(methylsulfonyl)-2-oxopyridin-1(2H)-yl)-3-(tetrahydro-2H-pyran-4-yl)-N-(thiazol-2-yl)propanamide trifluoroacetic acid salt]
10 | < 1.58 µM | O=C(Nc1nccs1)C(CC1CCCCC1)n1ccc(S(=O)(=O)C2CCCC2)cc1=O (stereo not drawn) [Example 8, 3-cyclohexyl-2-(4-(cyclopentylsulfonyl)-2-oxopyridin-1(2H)-yl)-N-(thiazol-2-yl)propanamide trifluoroacetic acid salt]
11 | > 15.8 µM | CS(=O)(=O)c1ccn(C(Cc2cc(F)ccc2Cl)C(=O)Nc2ncc(Cl)s2)c(=O)c1 (stereo not drawn) [Example 9, 3-(2-chloro-5-fluorophenyl)-N-(5-chlorothiazol-2-yl)-2-(4-(methylsulfonyl)-2-oxopyridin-1(2H)-yl)propanamide]
12 | > 15.8 µM | Cc1ccc(CC(C(=O)Nc2nccs2)n2c(C)cc(S(=O)(=O)C3CCCC3)cc2=O)cc1 (stereo not drawn) [Example 10, 2-(4-(cyclopentylsulfonyl)-6-methyl-2-oxopyridin-1(2H)-yl)-N-(thiazol-2-yl)-3-p-tolylpropanamide]
13 | < 1.58 µM | Cc1cc(S(=O)(=O)C2CCCC2)cc(=O)n1C(CC(C)C)C(=O)Nc1nccs1 (stereo not drawn) [Example 11, 2-(4-(cyclopentylsulfonyl)-6-methyl-2-oxopyridin-1(2H)-yl)-4-methyl-N-(thiazol-2-yl)pentanamide]
14 | 1.58 to 15.8 µM | Cc1cc(S(=O)(=O)C2CCCC2)cc(=O)n1C(CC1CC1)C(=O)Nc1nccs1 (stereo not drawn) [Example 12, 2-(4-(cyclopentylsulfonyl)-6-methyl-2-oxopyridin-1(2H)-yl)-3-cyclopropyl-N-(thiazol-2-yl)propanamide]
15 | < 1.58 µM | O=C(Nc1nccs1)[C@H](CC1CCCCC1)n1ccc(S(=O)(=O)C2CCCC2)cc1=O [Example 13, (S)-3-cyclohexyl-2-(4-(cyclopentylsulfonyl)-2-oxopyridin-1(2H)-yl)-N-(thiazol-2-yl)propanamide]
16 | < 1.58 µM | Cc1cc(S(=O)(=O)C2CCCC2)cc(=O)n1C(CC1CCCC1)C(=O)Nc1nccs1 (stereo not drawn) [Example 14, 3-cyclopentyl-2-(4-(cyclopentylsulfonyl)-6-methyl-2-oxopyridin-1(2H)-yl)-N-(thiazol-2-yl)propanamide]
17 | > 15.8 µM | CS(=O)(=O)c1ccn(C(Cc2ccsc2)C(=O)Nc2ncc(Cl)s2)c(=O)c1 (stereo not drawn) [Example 15, N-(5-chlorothiazol-2-yl)-2-(4-(methylsulfonyl)-2-oxopyridin-1(2H)-yl)-3-(thiophen-3-yl)propanamide]
18 | 1.58 to 15.8 µM | Cc1cc(S(=O)(=O)C2CCCC2)cc(=O)n1C(CC1CCOCC1)C(=O)Nc1nccs1 (stereo not drawn) [Example 16, 2-(4-(cyclopentylsulfonyl)-6-methyl-2-oxopyridin-1(2H)-yl)-3-(tetrahydro-2H-pyran-4-yl)-N-(thiazol-2-yl)propanamide]
19 | > 15.8 µM | CS(=O)(=O)c1ccn(C(Cc2c(Cl)cccc2Cl)C(=O)Nc2ncc(Cl)s2)c(=O)c1 (stereo not drawn) [Example 17, N-(5-chlorothiazol-2-yl)-3-(2,6-dichlorophenyl)-2-(4-(methylsulfonyl)-2-oxopyridin-1(2H)-yl)propanamide]
20 | 1.58 to 15.8 µM | CCCCC(C(=O)Nc1nccs1)n1c(C)cc(S(=O)(=O)C2CCCC2)cc1=O (stereo not drawn) [Example 18, 2-(4-(cyclopentylsulfonyl)-6-methyl-2-oxopyridin-1(2H)-yl)-N-(thiazol-2-yl)hexanamide]
21 | 1.58 to 15.8 µM | Cc1cc(S(=O)(=O)C2CCCC2)cc(=O)n1C(CCC(C)C)C(=O)Nc1nccs1 (stereo not drawn) [Example 19, 2-(4-(cyclopentylsulfonyl)-6-methyl-2-oxopyridin-1(2H)-yl)-5-methyl-N-(thiazol-2-yl)hexanamide]
22 | > 15.8 µM | COc1cccc(CC(C(=O)Nc2nccs2)n2c(C)cc(S(=O)(=O)C3CCCC3)cc2=O)c1 (stereo not drawn) [Example 20, 2-(4-(cyclopentylsulfonyl)-6-methyl-2-oxopyridin-1(2H)-yl)-3-(3-methoxyphenyl)-N-(thiazol-2-yl)propanamide]
23 | > 15.8 µM | Cc1cc(S(=O)(=O)C2CCCC2)cc(=O)n1C(Cc1ccco1)C(=O)Nc1nccs1 (stereo not drawn) [Example 21, 2-(4-(cyclopentylsulfonyl)-6-methyl-2-oxopyridin-1(2H)-yl)-3-(furan-2-yl)-N-(thiazol-2-yl)propanamide]
24 | > 15.8 µM | CS(=O)(=O)c1ccn([C@H](CC2CCOCC2)C(=O)Nc2ncc(Cl)s2)c(=O)c1 [Example 22, (R)-N-(5-chlorothiazol-2-yl)-2-(4-(methylsulfonyl)-2-oxopyridin-1(2H)-yl)-3-(tetrahydro-2H-pyran-4-yl)propanamide]
25 | 1.58 to 15.8 µM | CS(=O)(=O)c1ccn([C@@H](CC2CCOCC2)C(=O)Nc2ncc(Cl)s2)c(=O)c1 [Example 23, (S)-N-(5-chlorothiazol-2-yl)-2-(4-(methylsulfonyl)-2-oxopyridin-1(2H)-yl)-3-(tetrahydro-2H-pyran-4-yl)propanamide]
26 | > 15.8 µM | Cc1cc(C)cc(CC(C(=O)Nc2ncc(Cl)s2)n2ccc(S(C)(=O)=O)cc2=O)c1 (stereo not drawn) [Example 24, N-(5-chlorothiazol-2-yl)-3-(3,5-dimethylphenyl)-2-(4-(methylsulfonyl)-2-oxopyridin-1(2H)-yl)propanamide]
27 | < 1.58 µM | Cc1cc(S(=O)(=O)C2CC2)cc(=O)n1C(CC(C)(C)C)C(=O)Nc1ncc(Cl)s1 (stereo not drawn) [Example 25, N-(5-chlorothiazol-2-yl)-2-(4-(cyclopropylsulfonyl)-6-methyl-2-oxopyridin-1(2H)-yl)-4,4-dimethylpentanamide]
